From ChEMBL document CHEMBL3608211, “Exploration of Pharmacophore in Chrysosplenol C as Activator in Ventricular Myocyte Contraction” (ACS Med Chem Lett, 2015)
≈ marks a conversion by molar mass, not a printed value. Calls of active or inactive are those of the source. No cut-off for these calls is given here.

Key:
[1] = Positive inotropic effect in Sprague-Dawley rat ventricular myocytes assessed as change in ventricular cell contractility at 10 uM by video edge detector relative to control; type: functional, Ventricular myocyte
[2] = Positive inotropic effect in Sprague-Dawley rat ventricular myocytes assessed as change in ventricular cell contractility at 50 uM by video edge detector relative to control; type: functional, Ventricular myocyte
Gallus gallus = species on record: Gallus gallus; assay: Activation of smooth myosin S1 ATPase in chicken gizzard at 10 uM in presence of actin thin filament complex
[3] = Solubility of the compound in DMSO/tyrode solution; type: physicochemical
Bos taurus = species on record: Bos taurus; assay: Activation of cardiac myosin S1 ATPase in bovine sarcomere at 10 uM by spectrophometric analysis in presence of actin thin filament complex relative to control
Oryctolagus cuniculus = species on record: Oryctolagus cuniculus; assay: Activation of skeletal myosin S1 ATPase in rabbit psoas muscle at 10 uM in presence of actin thin filament complex; type: tissue-based
[4] = Positive inotropic effect in Sprague-Dawley rat ventricular myocytes assessed as change in ventricular cell contractility at 400 nM by video edge detector relative to control; type: functional, Ventricular myocyte
[5] = Positive inotropic effect in Sprague-Dawley rat ventricular myocytes assessed as change in ventricular cell contractility at 1 uM by video edge detector relative to control; type: functional, Ventricular myocyte

COc1cc(-c2oc3ccc(O)cc3c(=O)c2O)ccc1O
Activity [1]: 0% | Activity [2]: 0%

COc1cc(-c2oc3cccc(O)c3c(=O)c2O)ccc1O
Activity [1]: 0% | Activity [2]: 0%

O=c1c(O)c(-c2ccc(O)cc2)oc2cc(Cl)ccc12
Activity [1]: 0% | Activity [2]: 11%

COc1ccc2c(=O)c(OC)c(-c3ccc(O)c(OC)c3)oc2c1
Activity [1]: 60.7% | Activity (Gallus gallus): inactive | solubility [3]: 17.1 µg/mL (≈ 52 µM) | Activity (Bos taurus): 33.7% | Activity [2]: 45.3% | Activity (Oryctolagus cuniculus): inactive

COc1cc(-c2oc3cc(Cl)ccc3c(=O)c2OC)ccc1O
Activity [1]: 43.9% | Activity (Gallus gallus): inactive | Activity (Bos taurus): 36.4% | Activity [2]: 41.8% | Activity (Oryctolagus cuniculus): inactive

COc1cccc(-c2oc3cc(Cl)ccc3c(=O)c2OC)c1
Activity [1]: 16.6% | Activity [2]: 23.6%

COc1cc(-c2oc3ccc(O)cc3c(=O)c2OC)ccc1O
Activity [1]: 3.9% | Activity [2]: 9.3%

COc1ccc2c(=O)c(O)c(-c3ccc(O)c(OC)c3)oc2c1
Activity [1]: 8.17% | Activity (Bos taurus): 0% | Activity [2]: 3.98%

COc1cc(-c2cc(=O)c3ccc(Cl)cc3o2)ccc1O
Activity [1]: 0% | Activity [2]: 0%

COc1cc(-c2oc3ccccc3c(=O)c2O)ccc1O
Activity [1]: 10.5% | Activity [2]: 10.3%

COc1cc(-c2oc3cccc(O)c3c(=O)c2OC)ccc1O
Activity [1]: 4.2% | Activity (Bos taurus): 0% | Activity [2]: 12.3%

COc1c(-c2ccc(O)cc2)oc2cc(Cl)ccc2c1=O
Activity [1]: 49.6% | Activity (Gallus gallus): inactive | Activity (Bos taurus): 28.9% | Activity [2]: 62.1% | Activity (Oryctolagus cuniculus): inactive

COc1ccc2c(=O)c(OC)c(-c3ccc(O)cc3)oc2c1
Activity [1]: 42.1% | Activity (Gallus gallus): inactive | Activity (Bos taurus): 30.9% | Activity [2]: 38.6% | Activity (Oryctolagus cuniculus): inactive

COc1cc(-c2oc3ccccc3c(=O)c2OC)ccc1O
Activity [1]: 30.5% | Activity [2]: 44.9%

COc1c(-c2cccc(O)c2)oc2cc(Cl)ccc2c1=O
Activity [1]: 54.8% | Activity (Gallus gallus): inactive | Activity (Bos taurus): 38.7% | Activity [2]: 53.9% | Activity (Oryctolagus cuniculus): inactive

COC(=O)N1CCN(Cc2cccc(NC(=O)Nc3ccc(C)nc3)c2F)CC1 [OMECAMTIV MECARBIL]
Activity [4]: 59.3% | Activity [5]: 33.8% | Activity (Bos taurus): 80.4%

COc1ccc2c(=O)c(O)c(-c3ccc(O)cc3)oc2c1
Activity [1]: 8.87% | Activity [2]: 23.1%

COc1c(-c2ccc(Cl)cc2)oc2cc(Cl)ccc2c1=O
Activity [1]: 0% | Activity [2]: 0%

COc1cc(-c2oc3cc(OC)c(O)c(O)c3c(=O)c2OC)ccc1O [CHRYSOSPLENOL C]
Activity [1]: 16.6% | Activity (Gallus gallus): inactive | solubility [3]: 14.1 µg/mL (≈ 39.1 µM) | Activity (Bos taurus): 28.1% | Activity [2]: 53% | Activity (Oryctolagus cuniculus): inactive

COc1cc(-c2oc3cc(Cl)ccc3c(=O)c2O)ccc1O
Activity [1]: 23.5% | Activity [2]: 57.3%

COc1cc(/C=C/C(=O)c2ccc(Cl)cc2O)ccc1O
Activity [1]: 0% | Activity [2]: 0%

COc1ccc2c(=O)c(OC)c(-c3ccc(Cl)cc3)oc2c1
Activity [1]: 0% | Activity [2]: 0%

COc1cccc(-c2oc3cc(Cl)ccc3c(=O)c2O)c1
Activity [1]: 0% | Activity [2]: 0%

COc1ccc(-c2oc3cc(OC)c(OC)c(O)c3c(=O)c2OC)cc1OC [ARTEMETIN]
Activity [1]: 8.7% | Activity [2]: 21.6%
